{"source": "patent US20060276440A1", "about": "“Treatment of inflammatory disorders” (priority 2005, published 2006)", "key": {"MMP-13": {"test_system": "MMP-13", "assay": "IL-1/OSM-stimulated pro-MMP-13 production in SW-1353 cells (ELISA)", "format": "cell-based, human", "details": "Homo sapiens", "description": "To test the compounds identified in the preliminary reporter (luciferase) activity […]® line 4A1 screen for inhibition of OSM signaling in a more physiologically relevant environment, a human cell line involved in an inflammatory disease was adapted. The human cartilage cell line SW-1353 was selected.\nIn the human cartilage cell line SW-1353, while IL-1 is believed to activate expression of collagenases to a small degree and OSM is believed to have no effect on collagenase expression, a combination of IL-1 and OSM is believed to lead to a synergistic activation of collagenases to much higher levels (S. Cowell et al., Biochem J 331 (Pt 2), 453 (Apr. 15, 1998). Regulation of MMP-13 in SW-1353 cells is, therefore, believed to provide a biomarker which can be used to monitor IL-1/OSM-mediated signal transduction events in secondary assays.\n(§1) The same supernatants of culture media used in the primary screen were assayed for IL-1/OSM-stimulated pro-MMP-13 production and MMP-2 production by enzyme-linked immunosorbent assay (ELISA).\n(§2) For matrix metalloproteinase (MMP) measures, SW1353 cells were grown to confluence in 24 well plates, washed in DMEM (with Ham's F12) and placed in 500 ul of serum free DMEM/F-12 with 0.2% lactalbumin hydrosylate with and without OsM/IL-1. After 24 hrs, supernatants were collected and the amounts of proMMP13, totalMMP2, and proMMP1 were measured using Quantikine® ELISA kit for human MMPs (R & D systems, Minneapolis, Minn.). All MMP measures were normalized to viable cell numbers based on a tetrazolium (MTS) colorimetric measure (Promega, Madison, Wis.)."}, "MMP-2": {"test_system": "MMP-2", "assay": "MMP-2 production in SW1353 cells (ELISA, control)", "format": "cell-based, human", "procedure": "MMP-2 production can be used as control for the potential side-effects of compounds. This is because MMP-2 levels are not believed to change in response to IL-1/OSM.\nas §1, §2\nMultiple control assays were performed to investigate the selectivity of CA4 action. Matrix metalloproteinase-2 (MMP-2) production in SW1353 cells was tested. Mutation of MMP-2 causes a multicentric osteolysis and arthritis syndrome (Martignetti et al., Nat Genet 28, 261-265 (2001) the entire contents of which are incorporated herein by reference), and theoretically its expression should not be affected in treating RA. CA4 at approximately 110 nM had no effect on production of MMP-2 (FIG. 12E). An A549 Sentinel line that responded to TGF-β was then tested."}, "CD3": {"test_system": "CD3", "assay": "GFP-reporter Jurkat T-cell line, anti-CD3 antibody-upregulated reporter", "format": "cell-based", "details": "at 20 nM; data not shown"}, "MMP-13 mRNA": {"test_system": "MMP-13 mRNA", "assay": "MMP-13 mRNA by Taqman in OSM/IL-1-stimulated SW1353 cells", "format": "cell-based, human", "details": "FIG. 13A", "procedure": "(§3) Total RNA was isolated using RNAzol™ B (TEL-TEST Inc., Friendswood, Tex.). SuperScript™ first-strand synthesis system (Invitrogen) was used for cDNA generation. All oligonucleotide primers and fluorescent-labeled TaqMan probes were from Applied Biosystems (Foster City, Calif.). Relative quantization of gene expression was performed using the MX3000p real-time PCR instrument (Stratagene, La Jolla, Calif.). PCR reactions for all samples were performed in triplicates using 50 ng of cDNA. To compensate for the variation in the total cDNA, all readouts were normalized to an endogenous control (18S ribosomal RNA). Thermocycler conditions comprised an initial holding at 50° C. for 2 min, then 95° C. for 10 min, followed by a 2-step TaqMan PCR program consisting of 95° C. for 15 seconds, and 60° C. for 60 seconds for 40 cycles. The relative changes in gene expression were quantified as described in Applied Biosystems User Bulletin NO. 2 (P/N 4303859).\n(§4) The cellular and molecular mechanisms by which CA4 repressed pro-MMP-13 production, using SW1353 as the model system were investigated. […] The pathways that mediate OSM and IL-1 signal transduction were then examined. […]"}, "[1]": {"test_system": "AP-1 (c-fos, c-Jun) and Runx2", "assay": "mRNA of transcriptional factors AP-1 (c-fos, c-Jun) and Runx2 by Taqman in SW1353 cells", "format": "cell-based, human", "details": "20 nM; OSM/IL-1-stimulated or unstimulated SW1353; 2 hr or 14 hr", "procedure": "as §3, §4"}, "[2]": {"test_system": "murine collagen-induced arthritis (CIA) model", "assay": "Murine collagen-induced arthritis (CIA) model", "format": "in vivo", "procedure": "Male 6-8 week old B10RIII (Jackson Labs) mice were immunized at day 0, followed by a booster immunization on day 15.\nClinical scores started on day 16 and continued daily. Mice were sacrificed on day 26. Clinical scores of mouse paws were based on a 0-5 scoring system with 0 being normal and 5 being the most severe edema and erythema conditions. ELISAs on collected plasma samples were performed using commercial kits: IL-1β (R & D systems, Minneapolis, Minn.), anti-collagen II (Chondrex, Redmont, Wash.), and Rheumatoid Factors (IgG) (Alpha Diagnostic International, San Antonio, Tex.).\nCA4 at 50, 33, and 0 (vehicle) mg/ml in osmotic pumps (0.5 ul/hr; equivalent to 25, 16 and 0 mg/kg/day) was administered subcutaneously to murine collagen-induced arthritis model usin ghte B10RIII strain 12 days after the 1st immunization (day 0) of type II collagen. […] Dexamethasone at 0.2 mg/kg was injected daily subcutaneously as a positive control."}}, "note": "Entries after “also recorded” stand apart in the source; their conditions may differ. Where two headings read alike, the source gives them in different places.", "data": [{"smiles": "COc1ccc(/C=C\\c2cc(OC)c(OC)c(OC)c2)cc1O", "note": "[Combretastatin A4 (1), (Z)-5-(3,4,5-trimethoxystyryl)-2-methoxyphenol]", "values": [{"measurement": "IC50", "setting": "MMP-13; SW1353, SW-1353, IL-1/OSM-stimulated, secondary screen (Example 2), read-out: IC50, inhibition of MMP-13 (pro-MMP-13) production", "value": 2, "unit": "nM"}, {"measurement": "IC50", "setting": "MMP-13; SW1353 cells, mean (Examples 8, 10), read-out: IC50 values by pro-MMP-13 (OSM/IL-1-mediated production)", "value": "5.6 ± 1.3", "unit": "nM"}, {"measurement": "effect on production of MMP-2", "setting": "MMP-2; SW1353, CA4 at approximately 110 nM, FIG. 12E, listed as CA4", "value": "no effect; also recorded: failed to inhibit MMP-2 production"}, {"measurement": "inhibitory effect on MMP-13 expression compared to MMP-2 expression", "setting": "MMP-2; SW-1353, FIG. 5, listed as 1", "value": "greater inhibitory effects on MMP-13 expression compared to MMP-2 expression; also recorded: preferentially inhibit MMP-13 expression compared to MMP-2 expression"}, {"measurement": "effect on CD3-mediated increase of GFP fluorescence", "setting": "CD3", "value": "did not have any effect"}, {"measurement": "OSM/IL-1-induced MMP-13 mRNA levels", "setting": "MMP-13 mRNA", "value": "represses OSM/IL-1-induced MMP-13 mRNA levels"}, {"measurement": "messenger RNA levels of AP-1 (c-fos, c-Jun) and Runx2", "setting": "[1]", "value": "none of these factors as detected by Taqman were significantly altered"}, {"measurement": "knee joint histopathology", "setting": "[2]; 16 mg/kg/day by osmotic pumps", "value": "intermediate joint histopathological damages"}, {"measurement": "survival", "setting": "[2]; 16 mg/kg/day group, by day 22", "value": "All of the mice in the 16 mg/kg/day group survived"}, {"measurement": "knee joint histopathology", "setting": "[2]; 25 mg/kg/day by osmotic pumps", "value": "only minimal synovitis, minimal proteoglycan and cartilage loss, few infiltrated inflammatory cells, and no panus formation or bone resorption"}, {"measurement": "mice died", "setting": "[2]; 25 mg/kg/day group, by day 22", "value": "Eight of 15"}, {"measurement": "arthritis incidence rate", "setting": "[2]; 25 and 16 mg/kg/day s.c. osmotic pumps vs vehicle, day 15-22, listed as CA4", "value": "dose-dependently reduced the arthritis incidence rate"}, {"measurement": "macroscopic arthritis clinical scores of the paws", "setting": "[2]; 25 and 16 mg/kg/day s.c. osmotic pumps, listed as CA4", "value": "reduced the symptomatic macroscopic scores of the paws; also recorded: significantly reduced macroscopic arthritis clinical scores"}, {"measurement": "body weight", "setting": "[2]; CA4 treatment by osmotic pumps, FIG. 15C", "value": "without dramatically affecting body weight"}, {"measurement": "reduction of plasma IL-1β levels", "setting": "[2]; both CA4-treated groups (25, 16 mg/kg/day), ELISA", "value": "more than 50%"}, {"measurement": "titers of Rheumatoid Factors", "setting": "[2]; both doses of CA4 (25, 16 mg/kg/day), plasma ELISA", "value": "improved significantly to lower levels"}, {"measurement": "anti-type II collagen antibody titer", "setting": "[2]; higher dose of CA4 (25 mg/kg/day), plasma ELISA", "value": "significantly, albeit modestly, reduced"}]}]}
